Consider two molecules from paper PMC4718634, “Murine GPRC6A Mediates Cellular Responses to L-Amino Acids, but Not Osteocalcin Variants” (PLoS ONE, 2016).

One assay concerns mice. Particulars: injected into the peritoneal cavity; WT vs Gprc6a KO mice; ref [12]; cited from earlier work. The text has this:
(§1) Additional interest in GPRC6A has emerged due to several studies reporting that it mediates the metabolic and endocrine effects of the de-carboxylated form of the osteoblast-derived peptide, osteocalcin (OCN).

The test system of another assay is GPRC6A. Particulars: cited from earlier work.
Source text: as §1

The next assay concerns immortalised cell lines. Particulars: blocked by siRNA targeting Gprc6a; ref [12], [22]; cited from earlier work.
Source text: as §1

For the next assay, the system named is mouse GPRC6A. Particulars: ref [13]; cited from earlier work. The source says: Additional interest in GPRC6A has emerged due to several studies reporting that it mediates the metabolic and endocrine effects of the de-carboxylated form of the osteoblast-derived peptide, osteocalcin (OCN). […] Given these discrepancies, we sought to evaluate the pharmacology of human and mouse GPRC6A in a range of cell signalling assays ...

The next assay has as its system 3T3-L1 adipocytes. Particulars: endogenous; ref [16] (supplement list); cited from earlier work. The text has this:
(§2) Supplement pone.0146846.s004.docx, table 1 | column: Functional assay

For the next assay, the system named is TM3 Leydig cells. Particulars: endogenous; ref [12] (supplement list); cited from earlier work.
Source text: as §2

For the next assay, the target named is T1, mGPRC6A (mouse GPRC6A) (Mus musculus, UniProt Q8K4Z6).
T1 sequence (Q8K4Z6 21-928): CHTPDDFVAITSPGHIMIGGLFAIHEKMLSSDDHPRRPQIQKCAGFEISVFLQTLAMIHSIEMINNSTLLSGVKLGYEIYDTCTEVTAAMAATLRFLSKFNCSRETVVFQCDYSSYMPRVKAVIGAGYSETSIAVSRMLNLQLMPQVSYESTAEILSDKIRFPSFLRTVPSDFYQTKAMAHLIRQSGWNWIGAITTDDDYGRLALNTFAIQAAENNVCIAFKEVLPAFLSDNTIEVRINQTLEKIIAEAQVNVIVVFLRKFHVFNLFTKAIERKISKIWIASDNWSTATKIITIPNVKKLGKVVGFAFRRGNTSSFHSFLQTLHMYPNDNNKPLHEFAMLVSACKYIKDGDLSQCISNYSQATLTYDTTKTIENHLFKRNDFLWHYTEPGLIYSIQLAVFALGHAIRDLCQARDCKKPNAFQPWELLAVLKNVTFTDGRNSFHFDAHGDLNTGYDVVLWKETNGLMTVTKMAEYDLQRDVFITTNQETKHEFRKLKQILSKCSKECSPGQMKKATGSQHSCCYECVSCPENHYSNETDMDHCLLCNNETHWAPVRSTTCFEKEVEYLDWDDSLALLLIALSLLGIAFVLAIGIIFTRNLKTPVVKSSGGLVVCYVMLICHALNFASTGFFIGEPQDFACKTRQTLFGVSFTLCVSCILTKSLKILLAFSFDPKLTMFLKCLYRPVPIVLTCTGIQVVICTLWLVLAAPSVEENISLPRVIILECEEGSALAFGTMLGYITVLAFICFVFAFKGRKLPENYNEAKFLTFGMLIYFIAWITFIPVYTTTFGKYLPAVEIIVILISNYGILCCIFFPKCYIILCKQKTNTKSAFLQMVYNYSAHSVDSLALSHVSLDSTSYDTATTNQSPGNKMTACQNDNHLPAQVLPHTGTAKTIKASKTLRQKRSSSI
Kind of assay: Ca^2+i mobilisation, FlpIn-TREx-HEK293-mGPRC6A cells. The class given is cell-based. The method, boiled down: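 Tetracycline-induced FlpIn-TREx-HEK293 cells expressing mouse GPRC6A, transiently transfected with Gαq or GαqG66D and serum-starved overnight, were loaded with 1 μM Fluo-4-AM 1 h at 37 °C in pH 7.4 buffer with probenecid.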

A further assay relates to GLUTag cells. Particulars: endogenous; ref [17] (supplement list); cited from earlier work.
Source text: as §2

Entries after “also recorded” stand apart in the source; their conditions may differ.

Regarding “OCN: osteoblast-derived peptide, osteocalcin; variant not specified at the place (YLYQWLGAPVPYPDPLEPRREVCELNPDCDELADHIGFQEAYRRFYGPV; UniProt P02818 52-100, looked up)”, the circulating insulin levels entry in the assay on mice is reported as “increases circulating insulin levels in WT but not in Gprc6a KO mice”. In addition, the cAMP accumulation entry in the assay on GPRC6A (GPRC6A-expressing cell lines or mouse pancreatic islets, ref [8], [30]) is “cAMP accumulation”. For the same molecule, in the assay on GPRC6A (HEK293 transfected with GPRC6A, species not stated for receptor or peptide, ref [8]), the “OCN concentration stimulating cAMP accumulation” value is given as 3 ng/mL. In addition, in the assay on GPRC6A (approx., HEK293 cells expressing GPRC6A, species not stated, ref [10], [12]), the “OCN concentration promoting ERK1/2 phosphorylation” value is 40 to 80 ng/mL. The GLP-1 release entry with immortalised cell lines is “OCN-mediated insulin and glucagon-like peptide (GLP)-1 release”. In addition, in the assay with mouse GPRC6A, the “agonist activity of OCN at mouse GPRC6A” value is “no agonist effect of OCN was evident in any of the assays profiled; also recorded: failed to replicate either the agonist activity of OCN”. In addition, in the assay with 3T3-L1 adipocytes, the “Adiponectin, PPARγ expression response” value is recorded as “cAMP – response to OCN pERK1/2 – response to OCN pCREB – response to OCN Adiponectin, PPARγ expression – response to OCN”; the cAMP response entry is “cAMP – response to OCN pERK1/2 – response to OCN pCREB – response to OCN Adiponectin, PPARγ expression – response to OCN”; the pCREB response entry is listed as “cAMP – response to OCN pERK1/2 – response to OCN pCREB – response to OCN Adiponectin, PPARγ expression – response to OCN”; the pERK1/2 response result is on record as “cAMP – response to OCN pERK1/2 – response to OCN pCREB – response to OCN Adiponectin, PPARγ expression – response to OCN”. Further, in the assay on TM3 Leydig cells, the “Ca2+i response” value is listed as “negative”, the cAMP response result is “response”, the pCREB response entry is “response” and the pERK1/2 response result is “negative”.
Regarding `NCCC[C@H](N)C(=O)O` [L-ornithine], the “potency at murine GPRC6A (calcium and inositol phosphate, words)” value on mGPRC6A (mouse GPRC6A) (calcium mobilisation and inositol phosphate accumulation, Discussion) is “most potent agonists”. For the same molecule, the “rank order of potency, Ca^2+ mobilisation” value at mGPRC6A (mouse GPRC6A) (co-expressing GαqG66D, Fig 1D) was “L-ornithine > L-arginine = L-lysine”. For the same molecule, the EC50 on mGPRC6A (mouse GPRC6A) (co-expressing GαqG66D, Fluo-4, normalised to 100 μM ATP, pEC50 ± SEM, printed in picture Fig 1D, read-out: pEC50, Ca^2+ mobilisation (converted)) is 3.16 µM. Moreover, in the assay with GLUTag cells, the GLP-1 secretion response result is given as “response”.
